Where a name gives a salt, the structure may show the parent alone.
Legend:
A-375 = test: Cytotoxicity against human A375 cells; assay type: functional, cell-based
NCI-H1299 = test: Cytotoxicity against human NCI-H1299 cells; assay type: functional, cell-based
IMR-90 = test: Cytotoxicity against human IMR90 cells; assay type: functional, cell-based
PC-3 = test: Cytotoxicity against human PC3 cells assessed as reduction in cell viability incubated for 48 hrs by MTT assay; assay type: functional, cell-based; settings: PC-3, 48 h
HT-29 = test: Cytotoxicity against human HT-29 cells assessed as reduction in cell viability incubated for 48 hrs by MTT assay; assay type: functional, cell-based; settings: HT-29, 48 h
B16 = test: Cytotoxicity against mouse B16 cells assessed as reduction in cell viability incubated for 48 hrs by MTT assay; assay type: functional, cell-based; settings: B16, 48 h
A549 = test: Cytotoxicity against human A549 cells assessed as reduction in cell viability incubated for 48 hrs by MTT assay; assay type: functional, cell-based; settings: A549, 48 h
MCF7 [1] = test: Cytotoxicity against human MCF7 cells by MTT assay; assay type: functional, cell-based
MCF7 [2] = test: Induction of apoptosis in human MCF7 cells by Annexin V-FITC dual staining based flow cytometry (reference value: 0.03%); assay type: functional
CCRF S-180 = test: Antitumor activity against mouse S180 cells implanted in ICR mouse assessed as inhibition of tumor growth at 0.1 umol/kg, ip for 7 consecutive days starting 24 hrs after tumor cell inoculation relative to untreated control; assay type: functional; settings: CCRF S-180, ip, read-out: TGI
HepG2 = test: Cytotoxicity against human HepG2 cells by MTT assay; assay type: functional, cell-based
HeLa = test: Cytotoxicity against human HeLa cells by MTT assay; assay type: functional, cell-based
HL-60 = test: Cytotoxicity against human HL60(TB) cells incubated for 48 hrs by SRB assay; assay type: functional; settings: HL-60, 48 h, read-out: LC50 (the source's name)

c1ccc2c(c1)[nH]c1c(CNCCOCCNCc3nccc4c3[nH]c3ccccc34)nccc12
IC50 (A-375): 3 µM | IC50 (NCI-H1299): 1.6 µM | IC50 (IMR-90): 1.6 to 201 µM

COc1cc(C(=O)/C=C/c2cc3c([nH]c4ccccc43)c(-c3cc(OC)c(OC)c(OC)c3)n2)cc(OC)c1OC
IC50 (PC-3): 19.6 µM | IC50 (HT-29): 23.1 µM | IC50 (B16): 6.37 µM | IC50 (A549): 5.3 µM

O=C(/C=C/c1cc2c([nH]c3ccccc32)c(-c2ccc(C(F)(F)F)cc2)n1)c1ccco1
IC50 (MCF7 [1]): 1.56 to 5.29 µM | Activity (MCF7 [2]): 58.29%

COc1cc(-c2nc(C(=O)N[C@@H](Cc3c[nH]c4ccccc34)C(=O)N[C@@H](Cc3c[nH]c4ccccc34)C(=O)N[C@@H](CO)C(=O)OCc3ccccc3)cc3c2[nH]c2ccccc23)ccc1O
inhibition in vivo at 0.1 µmol/kg (CCRF S-180): 62.9%

CC(=O)N1N=C(c2ccco2)CC1c1cc2c([nH]c3ccccc32)c(-c2ccc(C(F)(F)F)cc2)n1 (configuration not stated)
IC50 (MCF7 [1]): 1.56 to 5.29 µM | Activity (MCF7 [2]): 62.64%

COC(=O)c1cc2c([nH]c3ccccc32)c(-c2ccc(OCc3cn(-c4cccc(Cl)c4Cl)nn3)cc2)n1
IC50 (HepG2): 32 µM | IC50 (HeLa): 46 µM

COc1ccc2[nH]cc(-c3nccc4c3[nH]c3ccc(OC)cc34)c2c1
CC50 (HL-60): 4.2 µM

CC[C@H](C)[C@H](NC(=O)[C@H](Cc1c[nH]c2ccccc12)NC(=O)[C@H](Cc1c[nH]c2ccccc12)NC(=O)c1cc2c([nH]c3ccccc32)c(-c2ccc(O)c(OC)c2)n1)C(=O)OCc1ccccc1
inhibition in vivo at 0.1 µmol/kg (CCRF S-180): 63.4%

COc1cccc2c1C(=O)c1c(O)c3c(c(O)c1C2=O)C[C@@](O)(C(=O)CO)C[C@@H]3O[C@H]1C[C@H](N)[C@H](O)[C@H](C)O1 [DOXORUBICIN HYDROCHLORIDE]
inhibition in vivo at 0.1 µmol/kg (CCRF S-180): 61.1%
